# How the values were obtained:
# [1] = system: patients with relapsing multiple sclerosis; test: Phase 2b dose-finding study: clinical laboratory tests, ECG, vital signs (PCSAs, ALT levels); assay type: in vivo, human
# Experimental: Temperature, pulse rate, respiratory rate, and blood pressure are assessed. The same method for temperature measurement should be used throughout the study. Blood pressure and pulse measurements are assessed in sitting or supine position with a completely automated device. Same position measurements should be used throughout the study for the same participant. Manual techniques are used only if an automated device is not available. Caffeinated drinks to be avoided before blood pressure measurements. Blood pressure and pulse measurements should be preceded by at least 5 minutes of rest for the participant in a quiet setting without distractions (e.g., television, cell phones). Vital signs (to be taken before blood collection for laboratory tests) consist of 1 pulse, 3 blood pressure measurements (3 consecutive blood pressure readings are recorded at intervals of at least 1 minute), and respiratory rate. The average of the 3 blood pressure readings is recorded.
# Single twelve-lead ECGs are obtained as outlined in the SOA (Table 1) using an ECG machine that automatically calculates the heart rate and measures PR, QRS, QT, and QTc intervals. At least one longer rhythm monitoring recording needs to be part of each ECG testing. The ECG is reviewed by a cardiologist for confirmation of abnormality and clinical evaluation. Refer to Example 1.4E for QTc withdrawal criteria and any additional QTc readings that may be necessary.
# See Example 1.16 for the list of clinical laboratory tests to be performed and to the SoA (Table 1) for the timing and frequency. The Investigator will review the laboratory report, document this review, and record any clinically relevant changes occurring during the study in the AE section of the eCRF. Clinically significant abnormal laboratory findings are those that are not associated with the underlying disease, unless judged by the Investigator to be more severe than expected for the participant's condition. […] All protocol-required laboratory assessments, as defined in Example 1.16, are conducted in accordance with the laboratory manual and the SoA (Table 1). If laboratory values from non-protocol specified laboratory assessments performed at the institution's local laboratory require a change in participant management or are considered clinically significant by the Investigator (e.g., SAE or AE or dose modification), then the results are recorded in the eCRF.
# The following definitions are applied to laboratory parameters, ECG, and vital sign results: • Potentially clinically significant abnormality (PCSA) values are defined as abnormal values considered medically important by the Sponsor according to predefined criteria/thresholds based on literature review and are defined by the Sponsor for clinical laboratory tests and vital signs. • Potentially clinically significant abnormality criteria determine which participants had at least 1 PCSA during the on-treatment period, taking into account all evaluations performed during the on-treatment period including unscheduled or repeated evaluations. The number of all such participants is the numerator for the on-treatment PCSA percentage
# Additional tests are performed at any time during the study as determined necessary by the Investigator or required by local regulations.
# [2] = system: patients with relapsing multiple sclerosis; test: Long-term safety extension: T2 lesion volume change from baseline (MRI); assay type: in vivo, human; settings: for Volume of new or enlarging T2 lesions, Mean (SD): in cm³
# Experimental: (§1) In the current open-label extension Part B, all patients receive 60 mg/day. MRI outcomes include numbers of new Gd-enhancing and new/enlarging T2 lesions, T2 lesion volume change from baseline, slowly evolving lesions (SEL), and paramagnetic rim lesions (PRL).
# (§2) The Week 0 value is from the last MRI obtained in the dose-finding study if performed within 6 weeks prior to Day 1 of the long-term safety study For some patients the Week 0 value began after a gap period ranging from 0-21 weeks. For patients where the gap period was 0 weeks, the Week 0 value began immediately after the completion of Week 16 of the dose-finding study. For patients where the gap period was greater than 6 weeks a new MRI was obtained prior to Day 1 of the long-term safety study.
# (§3) If from Week 16 of the dose-finding study (Cohort 2), it is also included in Week 12. If from Week 16 of the dose-finding study (Cohort 1), it is after 4 weeks placebo run out.
# [3] = system: patients with relapsing multiple sclerosis; test: Long-term safety extension: number of new T1 non-enhancing (hypointense) lesions (MRI); assay type: in vivo, human
# Experimental: as §1, §2, §3
# CD19+ B-cell = test: Phase 1: absolute CD19+ B-cell counts
# CYP3A = test: Preclinical drug metabolism studies: CYP3A; assay type: in vitro ADME
# From the text: See Table 12 for the list of drugs not to be used.
# [4] = system: patients with relapsing multiple sclerosis; test: Long-term safety extension: number of new or enlarging T2 lesions (MRI); assay type: in vivo, human
# Experimental: as §1, §2, §3
compound,measurement,setting,value
"C=CC(=O)N1CCC[C@@H](n2c(=O)n(-c3ccc(Oc4ccccc4)cc3)c3c(N)nccc32)C1 [the BTK inhibitor, (R)-1-(1-acryloylpiperidin-3-yl)-4-amino-3-(4-phenoxyphenyl)-1H-imidazo[4,5-c]pyridin-2(3H)-one]",ALT level of the participant with AESI,"[1]; 30 mg group, Week 8 visit",105 U/L
same,ALT level of the participant with AESI,"[1]; 30 mg group, within 4 days after the Week 8 visit, back to normal level",32 U/L
same,ALT level of the participant with AESI,"[1]; 60 mg group, Week 4 visit, ULN 34 U/L",107 U/L
same,ALT level of the participant with AESI,"[1]; 60 mg group, Week 12, back to normal level",28 U/L
same,"PCSAs related to vital signs, labs and ECGs: relation to dose",[1]; reported in multiple treatment groups,no dose relationship
same,"Volume of new or enlarging T2 lesions, Median","[2]; 5/60 mg, Week 0",0.09 cm³
same,"Volume of new or enlarging T2 lesions, Mean (SD)","[2]; 5/60 mg, Week 0",1.28 (2.57)
same,"Volume of new or enlarging T2 lesions, Median","[2]; 5/60 mg, Week 12",0.2 cm³
same,"Volume of new or enlarging T2 lesions, Mean (SD)","[2]; 5/60 mg, Week 12",1.05 (1.70)
same,"Volume of new or enlarging T2 lesions, Median","[2]; 15/60 mg, Week 0",0.08 cm³
same,"Volume of new or enlarging T2 lesions, Mean (SD)","[2]; 15/60 mg, Week 0",0.72 (1.86)
same,"Volume of new or enlarging T2 lesions, Median","[2]; 15/60 mg, Week 12",0.2 cm³
same,"Volume of new or enlarging T2 lesions, Mean (SD)","[2]; 15/60 mg, Week 12",1.09 (1.61)
same,"Volume of new or enlarging T2 lesions, Median","[2]; 30/60 mg, Week 0",0 cm³
same,"Volume of new or enlarging T2 lesions, Mean (SD)","[2]; 30/60 mg, Week 0",0.48 (1.59)
same,"Volume of new or enlarging T2 lesions, Median","[2]; 30/60 mg, Week 12",0.04 cm³
same,"Volume of new or enlarging T2 lesions, Mean (SD)","[2]; 30/60 mg, Week 12",0.69 (1.30)
same,"T2 lesion volume change, W96 vs baseline, mean±SD",[2]; 60/60 mg arm,0.38±2.11 cm3
same,"Volume of new or enlarging T2 lesions, Median","[2]; 60/60 mg, Week 0",0 cm³
same,"Volume of new or enlarging T2 lesions, Mean (SD)","[2]; 60/60 mg, Week 0",0.18 (0.38)
same,"Volume of new or enlarging T2 lesions, Median","[2]; 60/60 mg, Week 12",0.06 cm³
same,"Volume of new or enlarging T2 lesions, Mean (SD)","[2]; 60/60 mg, Week 12",0.26 (0.48)
same,"Volume of new or enlarging T2 lesions, Median","[2]; All (N = 125), Week 0",0 cm³
same,"Volume of new or enlarging T2 lesions, Mean (SD)","[2]; All (N = 125), Week 0",0.67 (1.81)
same,"Volume of new or enlarging T2 lesions, Median","[2]; All (N = 125), Week 12",0.12 cm³
same,"Volume of new or enlarging T2 lesions, Mean (SD)","[2]; All (N = 125), Week 12",0.80 (1.39)
same,"Number of new T1 non-enhancing (hypointense) lesions, Mean (SD)","[3]; 5/60 mg, Week 0",0.23 (0.43)
same,"Number of new T1 non-enhancing (hypointense) lesions, Median","[3]; 5/60 mg, Week 0",0.00
same,"Number of new T1 non-enhancing (hypointense) lesions, Mean (SD)","[3]; 5/60 mg, Week 12",0.19 (0.60)
same,"Number of new T1 non-enhancing (hypointense) lesions, Median","[3]; 5/60 mg, Week 12",0.00
same,"Number of new T1 non-enhancing (hypointense) lesions, Mean (SD)","[3]; 15/60 mg, Week 0",0.61 (1.45)
same,"Number of new T1 non-enhancing (hypointense) lesions, Median","[3]; 15/60 mg, Week 0",0.00
same,"Number of new T1 non-enhancing (hypointense) lesions, Mean (SD)","[3]; 15/60 mg, Week 12",0.26 (0.73)
same,"Number of new T1 non-enhancing (hypointense) lesions, Median","[3]; 15/60 mg, Week 12",0.00
same,"Number of new T1 non-enhancing (hypointense) lesions, Mean (SD)","[3]; 30/60 mg, Week 0",0.31 (1.09)
same,"Number of new T1 non-enhancing (hypointense) lesions, Median","[3]; 30/60 mg, Week 0",0.00
same,"Number of new T1 non-enhancing (hypointense) lesions, Mean (SD)","[3]; 30/60 mg, Week 12",0.09 (0.39)
same,"Number of new T1 non-enhancing (hypointense) lesions, Median","[3]; 30/60 mg, Week 12",0.00
same,"Number of new T1 non-enhancing (hypointense) lesions, Mean (SD)","[3]; 60/60 mg, Week 0",0.06 (0.36)
same,"Number of new T1 non-enhancing (hypointense) lesions, Median","[3]; 60/60 mg, Week 0",0.00
same,"Number of new T1 non-enhancing (hypointense) lesions, Mean (SD)","[3]; 60/60 mg, Week 12",0.03 (0.18)
same,"Number of new T1 non-enhancing (hypointense) lesions, Median","[3]; 60/60 mg, Week 12",0.00
same,"Number of new T1 non-enhancing (hypointense) lesions, Mean (SD)","[3]; All (N = 125), Week 0",0.30 (0.96)
same,"Number of new T1 non-enhancing (hypointense) lesions, Median","[3]; All (N = 125), Week 0",0.00
same,"Number of new T1 non-enhancing (hypointense) lesions, Mean (SD)","[3]; All (N = 125), Week 12",0.14 (0.52)
same,"Number of new T1 non-enhancing (hypointense) lesions, Median","[3]; All (N = 125), Week 12",0.00
same,Dose at which the dose-response for the increase in circulating B-cells is maximal,CD19+ B-cell,approximately 30 mg once daily
same,Dose-dependent increase of absolute CD19+ B-cell counts relative to baseline,CD19+ B-cell; observed maximally at Day 4,up to 80%
same,Substrate of CYP3A isoenzyme,CYP3A,substrate
same,"Number of new or enlarging T2 lesions, Mean (SD)","[4]; 5/60 mg, Week 0",3.97 (8.47)
same,"Number of new or enlarging T2 lesions, Median","[4]; 5/60 mg, Week 0",0.00
same,"Number of new or enlarging T2 lesions, Mean (SD)","[4]; 5/60 mg, Week 12",1.68 (3.49)
same,"Number of new or enlarging T2 lesions, Median","[4]; 5/60 mg, Week 12",0.00
same,"Number of new or enlarging T2 lesions, Mean (SD)","[4]; 15/60 mg, Week 0",3.52 (6.51)
same,"Number of new or enlarging T2 lesions, Median","[4]; 15/60 mg, Week 0",1.00
same,"Number of new or enlarging T2 lesions, Mean (SD)","[4]; 15/60 mg, Week 12",1.32 (1.83)
same,"Number of new or enlarging T2 lesions, Median","[4]; 15/60 mg, Week 12",1.00
same,"Number of new or enlarging T2 lesions, Mean (SD)","[4]; 30/60 mg, Week 0",3.41 (7.32)
same,"Number of new or enlarging T2 lesions, Median","[4]; 30/60 mg, Week 0",0.00
same,"Number of new or enlarging T2 lesions, Mean (SD)","[4]; 30/60 mg, Week 12",1.34 (4.97)
same,"Number of new or enlarging T2 lesions, Median","[4]; 30/60 mg, Week 12",0.00
same,New/enlarging T2 lesion counts,"[4]; 60/60 mg, LTS through W96",remained low
same,"Number of new or enlarging T2 lesions, Mean (SD)","[4]; 60/60 mg, Week 0",1.10 (1.87)
same,"Number of new or enlarging T2 lesions, Median","[4]; 60/60 mg, Week 0",0.00
same,"Number of new or enlarging T2 lesions, Mean (SD)","[4]; 60/60 mg, Week 12",0.29 (0.69)
same,"Number of new or enlarging T2 lesions, Median","[4]; 60/60 mg, Week 12",0.00
same,"Number of new or enlarging T2 lesions, Mean (SD)","[4]; All (N = 125), Week 0",3.00 (6.56)
same,"Number of new or enlarging T2 lesions, Median","[4]; All (N = 125), Week 0",0.00
same,"Number of new or enlarging T2 lesions, Mean (SD)","[4]; All (N = 125), Week 12",1.16 (3.21)
same,"Number of new or enlarging T2 lesions, Median","[4]; All (N = 125), Week 12",0.00

# Reference: patent US20260272907A1, “Therapeutic Tyrosine Kinase Inhibitors for Multiple Sclerosis” (Principia Biopharma Inc., priority 2022, published 2026)
